PMC9276676, “Difluoromethylornithine (DFMO) and AMXT 1501 inhibit capsule biosynthesis in pneumococci” (Scientific Reports, 2022)

How the values were obtained:
[1] = parameters: method as in PMID 30262852; settings: human ref 35; cited from earlier work
[2] = test system: TIGR4 (serotype 4) capsule; assay: Total capsular polysaccharide (CPS) immunoblot with densitometry; format: cell-based, Streptococcus pneumoniae
Experimental: (§1) S. pneumoniae strains were cultured with DFMO and AMXT 1501 at varying final concentrations of 1/2, 1/4, and 1/8 MIC to OD600 0.2–0.3 either individually or together to estimate any additive or synergistic effects. Capsular polysaccharides (CPS) were extracted and quantified in triplicate, as described previously[26] with slight modification. Briefly, CPS was extracted in a lysis buffer (4% deoxycholate, 50 µg/mL DNAse I and 50 µg/mL RNAse A) at 37 °C for 10 min and centrifuged at 18,000×g for 10 min. The supernatant (2 µL) was spotted on a 0.2-µm-pore-size nitrocellulose membrane (Thermo Fisher Scientific, Waltham, MA, USA) and oven dried at 60 °C for 15 min. The membranes were blocked and incubated with different types of antisera for capsule detection: antisera type- 4 (for TIGR4), 2 (for D39), polyclonal (for EF3030) and 3 (for WU2) (Cedarlane, Burlington, NC, USA). A conjugated polyclonal goat anti-rabbit IgG-HRP (Agilent Technologies, Santa Clara, CA, USA) was used for enhanced chemiluminescence (ECL) detection in all the strains (Thermo Fisher Scientific, Waltham, MA, USA) and scanned using a ChemiDoc XRS+ with Image Lab software (Bio-Rad, Hercules, CA, USA). Densitometry analysis of the immunoblot was done with NIH ImageJ software.
(§2) We determined the impact of varying concentrations of DFMO (1/8 to 1/2 MIC) on CPS in all serotypes (2, 4, 19F, and 3) used in this study. […] D39 was treated with 1/8 MIC DFMO alone, 1/4 MIC agmatine (Agm) alone, a combination of 1/8 MIC DFMO and 1/4 MIC Agm, and a control without DFMO or Agm. CPS was extracted as described in the previous section and immunoblot analysis with type 2 antisera was performed to detect CPS semi-quantitatively.

[3] = test system: EF3030 (serotype 19F) capsule; assay: as above; format: cell-based, Streptococcus pneumoniae
Experimental: as §1, §2

D39 (serotype 2) capsule = assay: as above; format: cell-based, Streptococcus pneumoniae
Experimental: as §1, §2

WU2 (serotype 3) capsule = assay: as above; format: cell-based, Streptococcus pneumoniae
Experimental: as §1, §2

EF3030 = assay: Viability/replication at 1/2 MIC DFMO (CFU on blood agar); format: cell-based, Streptococcus pneumoniae; settings: 1/2 MIC DFMO (137 mM)
Experimental: (§3) S. pneumoniae serotypes 4 (TIGR4), 2 (D39), 19F (EF3030) and 3 (WU2) were cultured in Todd Hewitt broth supplemented with yeast extract (THY). Supplementation with DFMO ranging from 1.1 to 549 mM was carried out in triplicate in a 96-well plate and incubated at 37 °C and 5% CO2 in a Cytation™ 5 cell imaging multi-mode reader (BioTek, Winooski, VT). The change in optical density at 600 nm (OD600) was measured every hour for 24 h and used to determine the minimum inhibitory concentration (MIC) of DFMO. The optical density data was analyzed using GrowthRates 4.0 software. To determine whether DFMO at sub-MIC is bacteriostatic or lethal to pneumococcal cells, all strains were cultured in the presence or absence of 1/2 MIC DFMO. OD600 was measured every hour and CFU were enumerated on a blood agar plate (BAP) every 2 h over an 8 h incubation period.

D39 = assay: as above; format: cell-based, Streptococcus pneumoniae; settings: 1/2 MIC DFMO (137 mM)
Experimental: as §3

TIGR4 = assay: as above; format: cell-based, Streptococcus pneumoniae; settings: 1/2 MIC DFMO (137 mM)
Experimental: as §3

Structure (SMILES): NCCC[C@](N)(C(=O)O)C(F)F [DFMO, α-difluoromethylornithine]
- safe dosage for use in human [1]: around 1.0 g/m^2/day
- safe dosage for use in human, as concentration [1]: 1 to 2 mM
- less capsule compared to untreated controls (densitometry of immunoblots) [2]: approximately 85%
- inhibition of CPS ([2]; serotype 4, DFMO less than 137 mM): failed to inhibit CPS
- less capsule compared to untreated controls (densitometry of immunoblots) [3]: ~84%
- inhibition of CPS ([3]; serotype 19F, DFMO less than 137 mM): failed to inhibit CPS
- less capsule compared to untreated controls (densitometry of immunoblots) (D39 (serotype 2) capsule): ~71%
- concentration that inhibits CPS (D39 (serotype 2) capsule; D39, 1/8 MIC): 34 mM
- total CPS (capsule) by immunoblot (D39 (serotype 2) capsule; D39, DFMO 1/8 MIC 34 mM, agmatine 1/4 MIC 20 mM, AMXT 1501 1/2 MIC 7.4 µM, alone or with agmatine): inhibits the capsule production
- less capsule compared to untreated controls (densitometry of immunoblots) (WU2 (serotype 3) capsule): ~39%
- inhibition of CPS (WU2 (serotype 3) capsule; serotype 3, DFMO less than 137 mM): failed to inhibit CPS
- effect on viability (viability curves) (EF3030): some bacteriostatic effect
- effect on viability (viability curves) (D39): some bacteriostatic effect
- effect on viability (viability curves) (TIGR4): some bacteriostatic effect
